Reference: EP4806898A1, “HETEROARYL DERIVATIVE COMPOUND AND USE THEREOF” (Voronoi Inc., priority 2023, dated 2025)
Where two headings read alike, the source gives them in different places.

Assays:
recombinant USP1 protein = target: T1, recombinant USP1 protein (Homo sapiens, UniProt O94782, DEL125-138/DEL229-408/DEL608-737); assay: Binding affinity to recombinant USP1 protein by differential scanning fluorimetry; settings: read-out: ΔTm (°C)
T1 sequence (O94782 with tags, fused parts or gaps DEL125-138/DEL229-408/DEL608-737): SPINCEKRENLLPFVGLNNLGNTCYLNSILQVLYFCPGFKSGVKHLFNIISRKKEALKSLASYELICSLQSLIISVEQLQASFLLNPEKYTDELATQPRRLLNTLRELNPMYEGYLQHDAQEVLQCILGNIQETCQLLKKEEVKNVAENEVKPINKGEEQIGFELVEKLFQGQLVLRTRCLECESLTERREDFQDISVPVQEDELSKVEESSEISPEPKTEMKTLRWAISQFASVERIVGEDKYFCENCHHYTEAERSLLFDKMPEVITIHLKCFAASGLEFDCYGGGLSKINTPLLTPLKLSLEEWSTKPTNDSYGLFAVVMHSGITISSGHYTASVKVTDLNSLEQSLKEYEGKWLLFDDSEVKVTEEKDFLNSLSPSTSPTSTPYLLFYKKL
Method in brief: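 Thermal shift readout: ΔTm is the compound-well melting temperature less the DMSO-well value, measured by real-time PCR. Compounds tested at 100 µM final against 0.03 mg/mL truncated USP1 (Δ1-66, Δ125-138, Δ229-408, Δ608-737) in pH 8.0 Tris buffer containing 150 mM NaCl, 2% glycerol, 1 mM DTT.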

UWB1.289 cells = assay: Cell proliferation inhibitory activity in BRCA1/2-mutant or HRD-positive cells (Cell Titer-Glo); assay type: cell-based; settings: read-out: GI50 UWB1.289 BRCA1 mut
Method in brief: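 GI50 from CellTiter-Glo luminescence after 144 h compound exposure at 37 °C. Cells seeded at 1,000 per well in MEBM/RPMI1640 mix 16–24 h beforehand; […] from 10 µM down to 1.5 nM final (3-fold steps).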

[1] = compound 100 µM, 0.03 mg/mL USP1 (Δ1-66, Δ125-138, Δ229-408, Δ608-737), Tm with compound minus Tm with DMSO
[2] = UWB1289, UWB1.289 cells, 144 hours after compound treatment, Cell Titer-Glo, 1.5 nM to 10 µM

Structure (SMILES) | ΔTm at 100 µM (recombinant USP1 protein; [1]) [°C] | GI50 (UWB1.289 cells; [2]) [nM] | ΔTm at 100 µM (recombinant USP1 protein) [°C] | GI50 (UWB1.289 cells; UWB1289, 144 h) [nM]
COc1ncnc(C2CC2)c1-c1ncc2cc(C(=O)N[C@@H]3CN(C)C[C@H]3F)n(Cc3ccc(-c4nc(C(F)(F)F)cn4C)cc3)c2n1 [Example 218, 2-(4-cyclopropyl-6-methoxypyrimidin-5-yl) -N-((3R,4R)-4-fluoro-1-methylpyrrolidin-3-yl)-7-(4-(1-methyl-4-(trifluoromethyl)-1H-imidazol-2-yl)benzyl)-7H-pyrrolo[2,3-d]pyrimidine-6-carboxamide] | > 5 | < 100 |  | 
COc1ncnc(C2CC2)c1-c1ncc2cc(C(=O)N[C@@H](C)CCO)n(Cc3ccc(-c4nc(C(F)(F)F)cn4C)cc3)c2n1 [Example 191, (S)-2-(4-cyclopropyl-6-methoxypyrimidin-5-yl)-N-(4-hydroxybutan-2-yl)-7-(4-(1-methyl-4-(trifluoromethyl)-1H-imidazol-2-yl)benzyl)-7H-pyrrolo[2,3-d]pyrimidine-6-carboxamide] | > 5 | < 100 |  | 
COc1ncnc(C2CC2)c1-c1ncc2cc(C(=O)N[C@H]3CCN(C)C[C@H]3F)n(Cc3ccc(-c4nc(C(F)(F)F)cn4C)cc3)c2n1 [Example 162, 2-(4-cyclopropyl-6-methoxypyrimidin-5-yl)-N-((3R, 4S) -3-fluoro-1-methylpiperidin-4-yl)-7-(4-(1-methyl-4-(trifluoromethyl)-1H-imidazol-2-yl)benzyl)-7H-pyrrolo[2,3-d]pyrimidine-6-carboxamide] | > 5 | < 100 |  | 
COc1ncnc(C2CC2)c1-c1ncc2cc(C(=O)NC[C@H](O)CO)n(Cc3ccc(-c4nc(C(F)(F)F)cn4C)cc3)c2n1 [Example 152, (S)-2-(4-cyclopropyl-6-methoxypyrimidin-5-yl)-N-(2,3-dihydroxypropy 1)-7-(4-(1-methyl-4-(trifluoromethyl)-1H-imidazol-2-yl)benzyl)-7H-pyrrolo[2,3-d]pyrimidine-6-carboxamide] | > 5 | 100 to 500 |  | 
COc1ncnc(C2CC2)c1-c1ncc2cc(C(=O)N[C@@H]3CCN(C(C)C)C[C@@H]3F)n(Cc3ccc(-c4nc(C(F)(F)F)cn4C)cc3)c2n1 [Example 221, 2-(4-cyclopropyl-6-methoxypyrimidin-5-yl)-N-((3S,4R)-3-fluoro-1-isopropylpiperidin-4-yl)-7-(4-(1-methyl-4-(trifluoromethyl)-1H-imidazol-2-yl)benzyl)-7H-pyrrolo[2,3-d]pyrimidine-6-carboxamide] | > 5 | < 100 |  | 
COc1ncnc(C2CC2)c1-c1ncc2cc(C(=O)N[C@H]3CN(C)C[C@@H]3F)n(Cc3ccc(-c4nc(C(F)(F)F)cn4C)cc3)c2n1 [Example 181, 2-(4-cyclopropyl-6-methoxypyrimidin-5-yl)-N-((3S,4S)-4-fluoro-1-methylpyrrolidin-3-yl)-7-(4-(1-methyl-4-(trifluoromethyl)-1H-imidazol-2-yl)benzyl)-7H-pyrrolo[2,3-d]pyrimidine-6-carboxamide] | > 5 | < 100 |  | 
COc1ncnc(C2CC2)c1-c1ncc2cc(C(=O)N3C[C@H](O)[C@H]3C)n(Cc3ccc(-c4nc(C(F)(F)F)cn4C(C)C)cc3)c2n1 [Example 112, (2-(4-cyclopropyl-6-methoxypyrimid in-5-yl)-7-(4-(1-isopropyl-4-(trifluoromethyl)-1H-imidazol-2-yl)benzyl)-7H-pyrrolo[2,3-d]pyrimidin-6-yl)((2R,3S)-3-hydroxy-2-methylazetidin-1-yl)methanone] | > 5 | < 100 |  | 
COc1ncnc(C2CC2)c1-c1ncc2cc(C(=O)NCCF)n(Cc3ccc(-c4nc(C(F)(F)F)cn4C(C)C)cc3)c2n1 [Example 21, 2-(4-cyclopropyl-6-methoxypyrimidin-5-yl)-N-(2-fluoroethyl)-7-(4-(1-isopropyl-4-(trifluoromethyl)-1H-imidazol-2-yl)benzyl)-7H-pyrrolo[2,3-d]pyrimidine-6-carboxamide] |  |  | > 5 | < 100

Further lines, with some results ahead:

ΔTm at 100 µM (recombinant USP1 protein; [1]) [°C] | Structure (SMILES) | GI50 (UWB1.289 cells; [2]) [nM] | ΔTm at 100 µM (recombinant USP1 protein) [°C] | GI50 (UWB1.289 cells; UWB1289, 144 h) [nM]
> 5 | COc1ncnc(C2CC2)c1-c1ncc2cc(C(=O)NC[C@H]3CCCN3)n(Cc3ccc(-c4nc(C(F)(F)F)cn4C(C)C)cc3)c2n1 [Example 58, (R) -2-(4-cyclopropyl-6-methoxypyrimidin-5-yl)-7-(4-(1-isopropyl-4-(trifluoromethyl)-1H-imidazol-2-yl)benzyl)-N-(pyrrolidin-2-ylmethyl)-7H-pyrrolo[2,3-d]pyrimidine-6-carboxamide] | < 100 |  | 
> 5 | COC(=O)CNC(=O)c1cc2cnc(-c3c(OC)ncnc3C3CC3)nc2n1Cc1ccc(-c2nc(C(F)(F)F)cn2C(C)C)cc1 [Example 45, methyl (2-(4-cyclopropyl-6-methoxypyrimid in-5-yl)-7-(4-(1-isopropyl-4-(trifluoromethyl)-1H-imidazol-2-yl)benzyl)-7H-pyrrolo[2,3-d]pyrimidine-6-carbonyl)glyci nate] | < 100 |  | 
> 5 | COc1ncnc(C2CC2)c1-c1ncc2cc(C(=O)NC3COC3)n(Cc3ccc(-c4nc(C(F)(F)F)cn4C(C)C)cc3)c2n1 [Example 13, 2-(4-cyclopropyl-6-methoxypyrimidin-5-yl)-7-(4-(1-isopropyl-4-(trifluoromethyl)-1H-imidazol-2-yl)benzyl) -N-(oxetan-3-yl)-7H-pyrrolo[2,3-d]pyrimidine-6-carboxamide] | < 100 |  | 
> 5 | COc1ncnc(C2CC2)c1-c1ncc2cc(C(=O)N[C@H](CO)C(C)C)n(Cc3ccc(-c4nc(C(F)(F)F)cn4C(C)C)cc3)c2n1 [Example 155, (S)-2-(4-cyclopropyl-6-methoxypyrimidin-5-yl)-N-(1-hydroxy-3-methylbutan-2-yl)-7-(4-(1-isopropyl-4-(trifluoromethyl)-1H-imidazol-2-yl)benzyl)-7H-pyrrolo[2,3-d]pyrimidine-6-carboxamide] | < 100 |  | 
> 5 | COc1ncnc(C2CC2)c1-c1ncc2cc(C(=O)NC[C@H](C)O)n(Cc3ccc(-c4nc(C(F)(F)F)cn4C)cc3)c2n1 [Example 164, (S)-2-(4-cyclopropyl-6-methoxypyrimidin-5-yl)-N-(2-hydroxypropyl) -7-(4-(1-methyl-4-(trifluoromethyl)-1H-imidazol-2-yl)benzyl)-7H-pyrrolo[2,3-d]pyrimidine-6-carboxamide] | < 100 |  | 
> 5 | COc1ncnc(C2CC2)c1-c1ncc2cc(C(=O)NC3CCNC3)n(Cc3ccc(-c4nc(C(F)(F)F)cn4C(C)C)cc3)c2n1 (stereo not drawn) [Example 41, 2-(4-cyclopropyl-6-methoxypyrimidin-5-yl)-7-(4-(1-isopropyl-4-(trifluoromethyl)-1H-imidazol-2-yl)benzyl)-N-(pyrrolidin-3-yl)-7H-pyrrolo[2,3-d]pyrimidine-6-carboxamide] | < 100 |  | 
> 5 | COc1ncnc(C2CC2)c1-c1ncc2cc(C(=O)NCC3COC3)n(Cc3ccc(-c4nc(C(F)(F)F)cn4C(C)C)cc3)c2n1 [Example 141, 2-(4-cyclopropyl-6-methoxypyrimidin-5-yl)-7-(4-(1-isopropyl-4-(trifluoromethyl)-1H-imidazol-2-yl)benzyl)-N-(oxetan-3-ylmethyl) -7H-pyrrolo[2,3-d]pyrimidine-6-carboxamide] | < 100 |  | 
> 5 | COc1ncnc(C2CC2)c1-c1ncc2cc(C(=O)NCC(C)(C)N)n(Cc3ccc(-c4nc(C(F)(F)F)cn4C(C)C)cc3)c2n1 [Example 118, N-(2-amino-2-methylpropyl)-2-(4-cyclopropyl-6-methoxypyrimidin-5-yl)-7-(4-(1-isopropyl-4-(trifluoromethyl)-1H-imidazol-2-yl)benzyl)-7H-pyrrolo[2,3-d]pyrimidine-6-carboxamide] | < 100 |  | 
> 5 | COc1ncnc(C2CC2)c1-c1ncc2cc(C(=O)NC3CCC(N(C)C)CC3)n(Cc3ccc(-c4nc(C(F)(F)F)cn4C(C)C)cc3)c2n1 (stereo not drawn) [Example 158, 2-(4-cyclopropyl-6-methoxypyrimidin-5-yl)-N-(4-(dimethylamino)cyclohexyl)-7-(4-(1-isopropyl-4-(trifluoromethyl)-1H-imidazol-2-yl)benzyl)-7H-pyrrolo[2,3-d]pyrimidine-6-carboxamide] | < 100 |  | 
> 5 | COc1ncnc(C2CC2)c1-c1ncc2cc(C(=O)NCCN3CCOCC3)n(Cc3ccc(-c4nc(C(F)(F)F)cn4C(C)C)cc3)c2n1 [Example 6, 2-(4-cyclopropyl-6-methoxypyrimidin-5-yl)-7-(4-(1-isopropyl-4-(trifluoromethyl)-1H-imidazol-2-yl)benzyl)-N-(2-morpholinoethyl)-7H-pyrrolo[2,3-d]pyrimidine-6-carboxamide] | < 100 |  | 
